Results reported in PubChem BioAssay AID248 (DTP/NCI, 2004).
“And” between values parts separate entries of the source, which are not always exact repeats. Equal entries are not always repeated. Toxic doses and inconclusive results are not listed. Cut-off read from the data, not from the text of the source: active = T/C of 150% or more; inactive = T/C below 125%.

Tested on: L1210 leukemia ip in BDF1 mice, survival T/C
Test: NCI In Vivo Anticancer Drug Screen. Data for tumor model L1210 Leukemia (intraperitoneal) in B6D2F1 (BDF1) mice
Settings: endpoint: mean survival time, higher = longer survival
How it was run: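 Read-out is survival time, reported as the treated-group measurement over the vehicle-control measurement.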

[1] = dose: 100.0 mg/kg/injection, schedule: Q01DX001 (ip), vehicle: saline
[2] = dose: 200.0 mg/kg/injection, schedule: Q01DX001 (ip), vehicle: saline
[3] = dose: 400.0 mg/kg/injection, schedule: Q01DX001 (ip), vehicle: saline
[4] = dose: 100.0 mg/kg/injection, schedule: Q04DX003 (ip), vehicle: Klucel (hydroxypropylcellulose) (HPC)
[5] = dose: 200.0 mg/kg/injection, schedule: Q04DX003 (ip), vehicle: Klucel (hydroxypropylcellulose) (HPC)
[6] = dose: 400.0 mg/kg/injection, schedule: Q04DX003 (ip), vehicle: Klucel (hydroxypropylcellulose) (HPC)
[7] = dose: 100.0 mg/kg/injection, schedule: Q01DX009 (ip), vehicle: Klucel (hydroxypropylcellulose) (HPC)
[8] = dose: 200.0 mg/kg/injection, schedule: Q01DX009 (ip), vehicle: Klucel (hydroxypropylcellulose) (HPC)
[9] = dose: 400.0 mg/kg/injection, schedule: Q01DX009 (ip), vehicle: Klucel (hydroxypropylcellulose) (HPC)
[10] = dose: 100.0 mg/kg/injection, schedule: Q04DX003 (ip), vehicle: saline with Tween-80
[11] = dose: 100.0 mg/kg/injection, schedule: Q01DX009 (ip), vehicle: saline with Tween-80
[12] = dose: 200.0 mg/kg/injection, schedule: Q01DX009 (ip), vehicle: saline with Tween-80
[13] = dose: 400.0 mg/kg/injection, schedule: Q01DX009 (ip), vehicle: saline with Tween-80
[14] = dose: 25.0 mg/kg/injection, schedule: Q01DX009 (ip), vehicle: saline with Tween-80
[15] = dose: 50.0 mg/kg/injection, schedule: Q01DX009 (ip), vehicle: saline with Tween-80
[16] = dose: 100.0 mg/kg/injection, schedule: Q01DX001 (ip), vehicle: carboxymethylcellulose (CMC)
[17] = dose: 200.0 mg/kg/injection, schedule: Q01DX001 (ip), vehicle: carboxymethylcellulose (CMC)

Measured: T/C

Cc1cc(OCCOC(=O)Nc2ccccc2C(F)(F)F)cc(C)c1Cl
inactive: dose: 100.0 mg/kg/injection, schedule: Q04DX002 (ip), vehicle: Klucel (hydroxypropylcellulose) (HPC) 89 % of control | dose: 200.0 mg/kg/injection, schedule: Q04DX002 (ip), vehicle: Klucel (hydroxypropylcellulose) (HPC) 101 % of control | dose: 400.0 mg/kg/injection, schedule: Q04DX002 (ip), vehicle: Klucel (hydroxypropylcellulose) (HPC) 92 % of control

O=C1Cc2ncccc2N1
inactive: [1] 107 % of control | [2] 100 % of control | [3] 114 % of control

O=[As]O
inactive: dose: 0.5 mg/kg/injection, schedule: Q01DX015 (ip), vehicle: carboxymethylcellulose (CMC) 97 % of control | dose: 1.0 mg/kg/injection, schedule: Q01DX015 (ip), vehicle: carboxymethylcellulose (CMC) 93 % of control | dose: 1.53 mg/kg/injection, schedule: Q01DX Z (ip), vehicle: carboxymethylcellulose (CMC) 110 % of control | dose: 2.0 mg/kg/injection, schedule: Q01DX015 (ip), vehicle: carboxymethylcellulose (CMC) 97 % of control | dose: 3.15 mg/kg/injection, schedule: Q01DX Z (ip), vehicle: carboxymethylcellulose (CMC) 98 % of control | dose: 4.0 mg/kg/injection, schedule: Q01DX015 (ip), vehicle: carboxymethylcellulose (CMC) 97 % of control | dose: 5.0 mg/kg/injection, schedule: Q01DX015 (ip), vehicle: carboxymethylcellulose (CMC) 88 % of control | dose: 6.3 mg/kg/injection, schedule: Q01DX Z (ip), vehicle: carboxymethylcellulose (CMC) 104 % of control | dose: 10.0 mg/kg/injection, schedule: Q01DX015 (ip), vehicle: carboxymethylcellulose (CMC) 87 % of control | dose: 12.6 mg/kg/injection, schedule: Q01DX Z (ip), vehicle: carboxymethylcellulose (CMC) 104 % of control

C[N+](C)(CC(=O)Nc1ccc(Cl)cc1)Cc1ccc2c(c1)CCCC2
inactive: dose: 6.25 mg/kg/injection, schedule: Q04DX002 (ip), vehicle: saline with Tween-80 90 % of control | dose: 12.5 mg/kg/injection, schedule: Q04DX002 (ip), vehicle: saline with Tween-80 90 % of control | dose: 25.0 mg/kg/injection, schedule: Q04DX002 (ip), vehicle: saline with Tween-80 90 % of control and 91 % of control

COC(=O)c1c(Cl)c(Cl)cc(Cl)c1Cl
inactive: dose: 100.0 mg/kg/injection, schedule: Q01DX009 (ip), vehicle: saline sonified 106 % of control | [4] 93 % of control | dose: 200.0 mg/kg/injection, schedule: Q01DX009 (ip), vehicle: saline sonified 113 % of control | [5] 98 % of control | dose: 400.0 mg/kg/injection, schedule: Q01DX009 (ip), vehicle: saline sonified 107 % of control | [6] 106 % of control

COc1ccc(Cl)cc1NC(=O)Nc1cc(C)ccn1
inactive: [7] 104 % of control | [8] 100 % of control | [9] 88 % of control

C=C1C2CCC3C4(C)CC(OC5OC(CO)C(OS(=O)(=O)O)C(OS(=O)(=O)O)C5OC(=O)CCCC)CC(C(=O)O)C4CCC3(C2)C1O (configuration not stated)
inactive: dose: 3.12 mg/kg/injection, schedule: Q01DX009 (ip), vehicle: saline 104 % of control | dose: 6.25 mg/kg/injection, schedule: Q01DX009 (ip), vehicle: saline 92 % of control | [10] 98 % of control | dose: 200.0 mg/kg/injection, schedule: Q04DX003 (ip), vehicle: saline with Tween-80 106 % of control

Cc1cccc(NC(=O)c2ccccc2C(=O)O)c1C
inactive: [7] 98 % of control | [4] 98 % of control | [8] 93 % of control | [5] 95 % of control | [9] 96 % of control | [6] 93 % of control

CC(C)C1=CCC2C(=C1)CCC1C(C)(C(N)=O)CCCC21C (configuration not stated)
inactive: [11] 102 % of control | [12] 92 % of control | [13] 89 % of control

COc1ccc(/C=N/NC(=O)C[n+]2ccccc2)c(OC)c1
inactive: [14] 110 % of control | [15] 101 % of control | [11] 103 % of control | [10] 94 % of control

CCCNC(=O)Oc1cccc(NC(=O)CC)c1
inactive: [14] 100 % of control | [15] 100 % of control | [11] 92 % of control

O=C(NCc1cnccn1)Oc1ccc([N+](=O)[O-])cc1
inactive: [15] 93 % of control | [11] 103 % of control | [13] 98 % of control

CSc1nc(Cl)cc(N2CC2)n1
inactive: dose: 0.39 mg/kg/injection, schedule: Q01DX009 (ip), vehicle: saline 106 % of control | dose: 0.78 mg/kg/injection, schedule: Q01DX009 (ip), vehicle: saline 97 % of control | dose: 0.78 mg/kg/injection, schedule: Q04DX003 (ip), vehicle: saline 107 % of control | dose: 1.56 mg/kg/injection, schedule: Q01DX001 (ip), vehicle: saline 101 % of control | dose: 1.56 mg/kg/injection, schedule: Q04DX003 (ip), vehicle: saline 101 % of control | dose: 3.12 mg/kg/injection, schedule: Q01DX001 (ip), vehicle: saline 101 % of control | dose: 59.0 mg/kg/injection, schedule: Q01DX Z (ip), vehicle: methylcellulose (MC) 94 % of control | dose: 88.0 mg/kg/injection, schedule: Q01DX Z (ip), vehicle: methylcellulose (MC) 93 % of control

CCCCCCCCOc1nccc(N)n1
inactive: dose: 75.0 mg/kg/injection, schedule: Q01DX001 (ip), vehicle: saline with Tween-80 105 % of control

CC/C(=N/Nc1ccc([N+](=O)[O-])cc1[N+](=O)[O-])c1cccs1
inactive: [16] 100 % of control | [17] 97 % of control

COC(=O)c1cc2c(cc1N=Cc1ccccc1Cl)OCO2
inactive: dose: 75.0 mg/kg/injection, schedule: Q04DX003 (ip), vehicle: Klucel (hydroxypropylcellulose) (HPC) 101 % of control | dose: 100.0 mg/kg/injection, schedule: Q01DX001 (ip), vehicle: Klucel (hydroxypropylcellulose) (HPC) 97 % of control | dose: 150.0 mg/kg/injection, schedule: Q04DX003 (ip), vehicle: Klucel (hydroxypropylcellulose) (HPC) 98 % of control | dose: 200.0 mg/kg/injection, schedule: Q01DX001 (ip), vehicle: Klucel (hydroxypropylcellulose) (HPC) 95 % of control | dose: 300.0 mg/kg/injection, schedule: Q04DX003 (ip), vehicle: Klucel (hydroxypropylcellulose) (HPC) 97 % of control | dose: 400.0 mg/kg/injection, schedule: Q01DX001 (ip), vehicle: Klucel (hydroxypropylcellulose) (HPC) 95 % of control

CN(C)/N=C1/CC(=O)CC(C)(C)C1
inactive: dose: 50.0 mg/kg/injection, schedule: Q01DX009 (ip), vehicle: Klucel (hydroxypropylcellulose) (HPC) 110 % of control | [7] 100 % of control | [8] 100 % of control

CCC[CH2][Sn]1([CH2]CCC)[O]C(=O)C2C(C(=O)[O]1)C1(Cl)C(Cl)=C(Cl)C2(Cl)C1(Cl)Cl (configuration not stated)
inactive: dose: 44.0 mg/kg/injection, schedule: Q01DX001 (ip), vehicle: saline 98 % of control | dose: 45.0 mg/kg/injection, schedule: Q01DX001 (ip), vehicle: saline 97 % of control | dose: 67.0 mg/kg/injection, schedule: Q01DX001 (ip), vehicle: saline 95 % of control and 101 % of control | [1] 98 % of control and 103 % of control | dose: 150.0 mg/kg/injection, schedule: Q01DX001 (ip), vehicle: saline 123 % of control

CCC(CC)C(=O)OCC(C)(C)C
inactive: [16] 96 % of control | [17] 104 % of control | dose: 400.0 mg/kg/injection, schedule: Q01DX001 (ip), vehicle: carboxymethylcellulose (CMC) 96 % of control

O=C(Cc1ccccn1)NCC(O)c1ccccc1 (configuration not stated)
inactive: [1] 110 % of control | [2] 91 % of control | [3] 93 % of control

Cc1ccc(NC(=O)OCCN(CCOC(=O)Nc2ccc(C)cc2)c2cccc(C)c2)cc1
inactive: [1] 94 % of control | [2] 90 % of control | [3] 94 % of control

CCCC(O)(CC)C1CCCC1C (configuration not stated)
inactive: [15] 105 % of control | [11] 111 % of control | [12] 94 % of control

CC(=O)N1CCc2cc(N)ccc21
inactive: [12] 103 % of control

COc1ccc(C(C)(O)c2cnc(C)n2Cc2ccccc2)cc1 (configuration not stated)
inactive: [4] 99 % of control | [5] 97 % of control | [6] 95 % of control
